The values that follow come from the Kinase Knowledgebase extract (Sharma et al. 2016).

SMILES strings stand for the structures.

In this test the target is PIK3CA (human) (UniProt P42336). The test can be described thus: Assessment of PIK3CA Kinase Activity.
PIK3CA (human), sequence (P42336 whole entry, looked up): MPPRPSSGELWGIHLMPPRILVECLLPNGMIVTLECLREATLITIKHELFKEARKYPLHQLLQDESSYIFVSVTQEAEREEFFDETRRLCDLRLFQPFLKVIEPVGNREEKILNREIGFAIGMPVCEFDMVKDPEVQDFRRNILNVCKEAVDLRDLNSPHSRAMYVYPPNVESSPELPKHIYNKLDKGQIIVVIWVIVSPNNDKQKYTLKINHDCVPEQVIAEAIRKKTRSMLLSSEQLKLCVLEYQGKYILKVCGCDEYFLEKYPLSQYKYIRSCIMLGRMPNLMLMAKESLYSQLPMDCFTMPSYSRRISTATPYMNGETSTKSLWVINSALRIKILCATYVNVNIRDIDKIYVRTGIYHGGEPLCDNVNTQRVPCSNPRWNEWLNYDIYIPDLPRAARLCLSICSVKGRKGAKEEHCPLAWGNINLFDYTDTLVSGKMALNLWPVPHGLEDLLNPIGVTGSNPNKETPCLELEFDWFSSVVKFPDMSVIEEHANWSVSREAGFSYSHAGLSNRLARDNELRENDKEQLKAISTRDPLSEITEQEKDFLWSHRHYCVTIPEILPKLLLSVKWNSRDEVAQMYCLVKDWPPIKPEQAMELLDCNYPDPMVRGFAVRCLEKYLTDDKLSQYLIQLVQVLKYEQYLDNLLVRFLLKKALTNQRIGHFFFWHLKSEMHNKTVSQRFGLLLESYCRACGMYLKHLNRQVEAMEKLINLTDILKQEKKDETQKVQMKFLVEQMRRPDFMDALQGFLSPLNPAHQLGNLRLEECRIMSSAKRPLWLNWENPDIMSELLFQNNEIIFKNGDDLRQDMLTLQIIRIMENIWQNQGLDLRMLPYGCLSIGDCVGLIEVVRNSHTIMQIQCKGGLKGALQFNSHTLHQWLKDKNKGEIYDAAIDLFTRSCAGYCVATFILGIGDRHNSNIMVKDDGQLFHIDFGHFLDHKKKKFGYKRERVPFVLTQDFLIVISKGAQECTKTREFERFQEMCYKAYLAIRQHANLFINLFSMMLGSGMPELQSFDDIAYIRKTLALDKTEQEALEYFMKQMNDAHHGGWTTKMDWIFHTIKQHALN
By IC50 is commonly meant the concentration that inhibits the measured activity by half. A higher IC50 goes with weaker potency in that assay. Turning to `CCNC(=O)Nc1ccc2ncc(-c3ccc(OC)c(O)c3)nc2n1`, the IC50 is under 5 µM.

For `CCNC(=O)Nc1ccc2ncc(Nc3ccc(O)c(C(=O)OC)c3)nc2n1`, the IC50 is under 1 µM.

In turn, `COc1cc(-c2ccc3ncc(NC(=O)Nc4ccncc4)nc3n2)ccc1O` displayed an IC50 of under 1 µM.

`CCNC(=O)Nc1ccc2ncc(Nc3cccc(OC(F)F)c3)nc2n1` yielded an IC50 of under 5 µM.

Consider `CCNC(=O)Nc1cnc2ccc(-c3ccc(O)c(Cl)c3)nc2n1`, for which the IC50 was under 5 µM.

For `CCNC(=S)Nc1ccc2ncc(Nc3ccc(OC)c(O)c3)nc2n1`, the IC50 is under 1 µM.

In turn, `COc1cc(-c2ccc3ncc(NC(=O)NCCCl)nc3n2)ccc1O` had an IC50 of under 1 µM.

As for `CCNC(=O)Nc1ccc2ncc(-c3ccc(OC(C)=O)c(OC)c3)nc2n1`, the half-inhibitory concentration (IC50) is under 5 µM.

The compound `CCNC(=O)Nc1cnc2ccc(-c3cc(C)c(O)c(C)c3)nc2n1` displayed an IC50 of under 5 µM.

Compound `CC(C)(C)NC(=O)Nc1cnc2ccc(-c3cc(Cl)c(O)c(Cl)c3)nc2n1` registered an IC50 of under 5 µM.

As for `O=C(Nc1cnc2ccc(-c3cc(Cl)c(O)c(Cl)c3)nc2n1)NC1CCCC1`, the IC50 is under 1 µM.

The compound `CNC(=S)Nc1cnc2ccc(-c3ccc(O)c(OC)c3)nc2n1` registered an IC50 of under 1 µM.

Compound `COc1cc(-c2ccc3ncc(NC(=O)NC4CCCC4)nc3n2)ccc1O` came in with a concentration for half-maximal inhibition (IC50) of under 1 µM.

Compound `CCNC(=O)Nc1ccc2ncc(Nc3ccccc3O)nc2n1` had an IC50 of under 5 µM.

On to `COc1cc(-c2ccc3ncc(NC(=O)NC4CCN(C(=O)C(F)(F)F)CC4)nc3n2)ccc1O`, for which the IC50 is under 1 µM.

On to `COc1cc(-c2ccc3ncc(NC(=O)Nc4cccs4)nc3n2)ccc1O`, for which the IC50 was under 1 µM.

Compound `CNC(=O)Nc1cnc2ccc(-c3ccc(OC)c(OC)c3)nc2n1` gave an IC50 of under 5 µM.

Regarding `CCNC(=O)Nc1cnc2ccc(-c3ccc(O)c(OC)c3)nc2n1`, the IC50 was under 0.5 µM.

Consider `CCNC(=S)Nc1ccc2ncc(Nc3cc(OC)c(OC)c(OC)c3)nc2n1`, for which the IC50 was under 1 µM.

As to `CCNC(=O)Nc1ccc2ncc(Nc3cccc(O)c3)nc2n1`, the IC50 was under 5 µM.

As to `COc1cc(Nc2cnc3ccc(NC(=S)NC4CCCC4)nc3n2)cc(OC)c1OC`, the half-maximal inhibitory concentration (IC50) was under 1 µM.
